Measurements from article PMC11396751, “Design, Synthesis, and Anticancer Activity of Novel Enmein-Type Diterpenoid Derivatives Targeting the PI3K/Akt/mTOR Signaling Pathway” (Molecules, 2024).

Experiments:
Type in all cases: cell-based, human
HepG2 cells = assay: MTT anti-proliferative assay, HepG2
Protocol: (§1) A series of novel enmein-type diterpenoid derivatives, 5a–m, were synthesized by introducing a side chain containing a carbamate moiety at the C-6 position of compound 4. The anticancer activities of 5a–m were tested against three human cancer cell lines and one human normal cell line by MTT assay.
(§2) Human non-small cell lung cancer cell lines (A549), human liver cancer cell lines (HepG2), human breast cancer cell lines (MCF-7), and human normal cell lines (L-02) were purchased from the cell bank of the Chinese Academy of Sciences. All cells were placed in RPMI-1640 medium (added 10% fetal bovine serum, […]) and cultured in an aseptic environment with 5% CO2 at 37 °C.
(§3) All derivatives were evaluated for their anti-proliferative activities against three cancer cell lines and one normal cell line by MTT assay. The cells in the logarithmic growth phase were inoculated into 96-well plates (3 × 10^3 cells/well) and incubated for 48 h in a sterile environment with 5% CO2 at 37 °C to make them attach via cell adhesion; then, the cells were co-incubated with target compounds for 48 h. After that, MTT solution (10 µL/well) was added to the cell culture medium to continue incubation for 4 h, following which the medium was replaced with DMSO (150 µL/well). The absorbance values at 490 nm were determined using an enzyme meter (Safire 2, Tecan, Männedorf, Switzerland) and further converted to half-inhibitory concentration values of these compounds.

A549 cells [1] = assay: Apoptosis rate, Annexin V-FITC/PI, flow cytometry; details: 48 h
Protocol: To further confirm the capacity of 7h to induce apoptosis in cancer cells, A549 cells were treated with 7h, detected using Annexin V-FITC/PI staining, and the apoptosis rate was detected by flow cytometry.
A549 cells were inoculated into 6-well plates and attached via cell adhesion. Then, gradient concentrations (0, 2, 4, and 8 µM) of 7h was added and co-incubated for 48 h. The cells were gathered and prepared as cell suspensions according to the method described in Section 4.2.3. The cell suspension was treated with Annexin V-FITC/PI staining solution, and the data were gathered using a flow cytometer (FACS Calibur, BD, Milpitas, CA, USA) and analyzed using Flow Jo software. Three attempts were performed for each treatment to eliminate experimental bias.

A549 cells [2] = assay: Apoptosis morphology, AO/EB double staining; details: A549, 2, 4 and 8 µM, 48 h
Protocol: To explore whether compound 7h could induce apoptosis in cancer cells, A549 cells were treated with different concentrations (0, 2, 4, and 8 µM) of 7h and then stained with AO/EB double staining. In the blank control group, normal cells were stained green with AO staining solution with intact nuclei.
A549 cells were inoculated into 24-well plates and attached via cell adhesion. Then, gradient concentrations (0, 2, 4, and 8 µM) of 7h were added and co-incubated for 48 h. The cells were cleaned with ice-cold PBS, stained with AO/EB, mixed, and then incubated in cells for 5 min in darkness at 25 °C. The apoptosis morphology of the cells in each group was observed and photographed using a laser confocal microscope (LSM710, Zeiss, Oberkochen, Germany).

A549 cells [3] = assay: MTT anti-proliferative assay, A549
Protocol: as §1, §2, §3

[4] = A549, highest concentration (8 µM per Figure 4b)

C=C1C(=O)C23C(=O)OC45CCC(C)(C)C6C(OC(=O)CCC(=O)N7CCC(c8noc9cc(F)ccc89)CC7)OCC64C2CCC1C3O5 (single isomer, unassigned; ent-6) [Compound 7h, ent-6β,14α-Dihydroxy-(1,7–1,14)-epoxy-7,15-dioxo-6,20-hemiketal-6,7-seco-16-kaurene-6β-yl 4-(4-(6-fluorobenzo[d]isoxazol-3-yl)piperidin-1-yl)-4-oxobutanoate]
anticancer activity in words, HepG2 (HepG2 cells; HepG2 cells): low micro-molar-level anticancer activities | IC50 (HepG2 cells; Homo sapiens, HepG2, MTT, 48 h, means ± SD of three experiments): 6.1 ± 1.24 µM | late apoptosis (A549 cells [1]; [4]): 41.8% | percentage of total apoptosis (A549 cells [1]; [4]): 58.00% | percentage of total apoptosis (A549 cells [1]; A549, lowest concentration (2 µM per Figure 4b)): 5.38% | apoptosis morphology (AO/EB) (A549 cells [2]): generated large amounts of apoptotic cells | fold better than parental compound 4 (A549 IC50) (A549 cells [3]; A549 cells): 11.03 fold | IC50 (A549 cells [3]; Homo sapiens, A549, MTT, 48 h, means ± SD of three experiments): 2.16 ± 1.4 µM
